Experiments:
S. pneumoniae Nan A [1] = target: T1, S. pneumoniae Nan A (Streptococcus pneumoniae, UniProt P62575); assay: Fluorescence-based inhibition assay of S. pneumoniae Nan A with MUNANA substrate; format: biochemical; details: for IC50: 2.2 nM Nan A, 50 µM substrate, pH 7.5, triplicate, read-out: IC50 against S. pneumoniae Nan A
T1 construct: 6x His-tag (C); made in house; host or cells: E. coli BL21 (DE3)

S. pneumoniae Nan A [2] = target: T1, S. pneumoniae Nan A; assay: Enzyme kinetic study (inhibition mechanism and Ki) on Nan A; format: biochemical; details: for Inhibition type against Nan A: Lineweaver-Burk and Dixon plots; for Ki: nonlinear regression, SigmaPlot Enzyme Kinetics, read-out: Ki against Nan A
[3] = target: T2, Vibrio cholerae sialidase (Vibrio cholerae serotype O1, UniProt P0C6E9); assay: biochemical
T2 construct: purchased Sigma 72197
T2 sequence (P0C6E9 25-781): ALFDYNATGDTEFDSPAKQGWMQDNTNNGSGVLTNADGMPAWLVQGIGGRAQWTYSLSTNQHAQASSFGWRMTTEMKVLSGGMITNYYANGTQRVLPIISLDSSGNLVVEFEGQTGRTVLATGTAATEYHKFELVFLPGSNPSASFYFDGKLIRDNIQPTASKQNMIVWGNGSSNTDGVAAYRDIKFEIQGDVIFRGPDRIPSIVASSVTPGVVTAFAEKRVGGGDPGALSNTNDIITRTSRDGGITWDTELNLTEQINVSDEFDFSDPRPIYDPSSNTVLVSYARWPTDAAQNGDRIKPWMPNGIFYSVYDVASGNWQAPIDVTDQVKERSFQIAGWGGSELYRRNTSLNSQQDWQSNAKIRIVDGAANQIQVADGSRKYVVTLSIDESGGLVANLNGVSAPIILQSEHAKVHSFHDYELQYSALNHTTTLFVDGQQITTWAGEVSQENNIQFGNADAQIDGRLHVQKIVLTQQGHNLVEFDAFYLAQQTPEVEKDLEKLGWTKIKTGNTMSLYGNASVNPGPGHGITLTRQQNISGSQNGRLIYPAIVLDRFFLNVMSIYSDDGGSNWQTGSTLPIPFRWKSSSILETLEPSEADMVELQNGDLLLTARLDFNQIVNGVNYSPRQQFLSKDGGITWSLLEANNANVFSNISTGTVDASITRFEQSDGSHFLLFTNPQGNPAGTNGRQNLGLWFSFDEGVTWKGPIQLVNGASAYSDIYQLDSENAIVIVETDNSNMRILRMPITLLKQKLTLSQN

T1 sequence (P62575 319-822 limits assumed): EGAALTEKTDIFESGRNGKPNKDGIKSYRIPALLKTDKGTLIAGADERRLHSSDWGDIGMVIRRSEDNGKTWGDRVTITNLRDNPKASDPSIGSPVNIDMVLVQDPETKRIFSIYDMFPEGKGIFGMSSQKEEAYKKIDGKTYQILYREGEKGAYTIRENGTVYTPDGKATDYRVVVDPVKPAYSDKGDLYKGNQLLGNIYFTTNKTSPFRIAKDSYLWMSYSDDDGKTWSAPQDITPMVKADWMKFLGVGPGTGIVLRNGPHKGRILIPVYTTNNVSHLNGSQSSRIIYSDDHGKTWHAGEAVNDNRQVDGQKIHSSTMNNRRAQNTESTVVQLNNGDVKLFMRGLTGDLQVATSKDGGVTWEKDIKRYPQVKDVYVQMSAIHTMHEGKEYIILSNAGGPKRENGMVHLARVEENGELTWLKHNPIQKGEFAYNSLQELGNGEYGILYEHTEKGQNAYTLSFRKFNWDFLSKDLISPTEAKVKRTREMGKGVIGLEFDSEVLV

Row | SMILES | IC50 (S. pneumoniae Nan A [1]) [µM] | Inhibition type against Nan A (S. pneumoniae Nan A [2]) | Ki (S. pneumoniae Nan A [2]) [µM] | IC50 [3] [µM] | melting point | fold improvement in Nan A inhibitory activity over curcumin (S. pneumoniae Nan A [1]; IC50 ratio versus curcumin (4a)) [fold]
1 | COc1cc(/C=C/C(=O)/C=C(O)/C=C/c2ccc(O)c(OC)c2)ccc1O [Compound 4a, curcumin] | 0.6 ± 0.1 | noncompetitive inhibition | 1.3 | 5.3 ± 0.7 | – | –
2 | COc1ccc(C=CC(=O)C=C(O)C=Cc2ccc(OC)c(O)c2)cc1O [Compound 4b, 5-Hydroxy-1,7-bis(3-hydroxy-4-methoxyphenyl)hepta-1,4,6-trien-3-one] | 1 ± 0.4 | – | – | 7.6 ± 0.5 | 182 to 183 °C | –
3 | COc1ccc(/C=C/C(=O)/C=C(O)/C=C/c2ccc(OC)c(OC)c2)cc1OC [Compound 4c, 1,7-Bis(3,4-dimethoxyphenyl)-5-hydroxyhepta-1,4,6-trien-3-one] | 3.4 ± 1 | – | – | 21.5 ± 7 | – | –
4 | O=C(C=Cc1ccc(O)c(O)c1)C=C(O)C=Cc1ccc(O)c(O)c1 [Compound 4d, 1,7-bis(3,4-dihydroxyphenyl)-5-hydroxyhepta-1,4,6-trien-3-one] | 1.5 ± 0.7 | – | – | 11.9 ± 2 | 300 °C (dec.) | –
5 | O=C(C=Cc1ccc(O)cc1)C=C(O)C=Cc1ccc(O)cc1 [Compound 4e, 5-Hydroxy-1,7-bis(4-hydroxyphenyl)hepta-1,4,6-trien-3-one] | 4 ± 1.2 | noncompetitive inhibition | 1.2 | 15.1 ± 0.1 | – | –
6 | COc1cc(C=CC(O)=C2CCCC(=Cc3ccc(O)c(OC)c3)C2=O)ccc1O [Compound 4f, 2–(1-Hydroxy-3-(4-hydroxy-3-methoxyphenyl)allylidene)-6-(4-hydroxy-3-methoxybenzylidene)cyclohexan-1-one] | 4.7 ± 0.5 | – | – | 24.9 ± 1.8 | 182 to 183 °C | –
7 | COc1cc(/C=C/C(O)=C/C(=O)/C=C/c2ccc(OC)c(OC)c2)ccc1O [Compound 5a, 7-(3,4-Dimethoxyphenyl)-5-hydroxy-1-(4-hydroxy-3-methoxyphenyl)hepta-1,4,6-trien-3-one] | 1.5 ± 0.7 | – | – | 11.7 ± 0.2 | – | –
8 | COc1ccc(/C=C/C(O)=C/C(=O)/C=C/c2ccc(OC)c(OC)c2)cc1O [Compound 5b, 7-(3,4-Dimethoxyphenyl)-5-hydroxy-1-(3-hydroxy-4-methoxyphenyl)hepta-1,4,6-trien-3-one] | 0.6 ± 0.1 | – | – | 9.2 ± 0.2 | 155 to 158 °C | –
9 | COc1ccc(/C=C/C(O)=C/C(=O)/C=C/c2ccc(O)c(OC)c2)cc1O [Compound 5c, 5-Hydroxy-7-(4-hydroxy-3-methoxyphenyl)-1-(3-hydroxy-4-methoxyphenyl)hepta-1,4,6-trien-3-one] | 1 ± 0.4 | – | – | 7.7 ± 0.7 | 137 to 140 °C | –
10 | COc1cc(/C=C/C(=O)/C=C(O)/C=C/c2ccc(O)c(O)c2)ccc1O [Compound 5d, 1-(3,4-Dihydroxyphenyl)-5-hydroxy-7-(4-hydroxy-3-methoxyphenyl)hepta-1,4,6-trien-3-one] | 0.7 ± 0.2 | – | – | 2.7 ± 0.8 | – | –
11 | COc1ccc(/C=C/C(=O)/C=C(O)/C=C/c2ccc(O)c(O)c2)cc1O [Compound 5e, 1-(3,4-Dihydroxyphenyl)-5-hydroxy-7-(3-hydroxy-4-methoxyphenyl)hepta-1,4,6-trien-3-one] | 0.2 ± 0.1 | competitive inhibition | 0.14 | 4.8 ± 1.5 | 203 to 204 °C | 3.0
12 | CCOc1cc(/C=C/C(O)=C/C(=O)/C=C/c2ccc(O)c(OC)c2)ccc1O [Compound 5f, 1-(3-Ethoxy-4-hydroxyphenyl)-5-hydroxy-7-(4-hydroxy-3-methoxyphenyl)hepta-1,4,6-trien-3-one] | 1.5 ± 0.8 | – | – | 6.7 ± 0.6 | 182 to 183 °C | –
13 | COc1cc(C=CC(O)=CC(=O)C=Cc2cccnc2)ccc1O [Compound 5g, 5-Hydroxy-7-(4-hydroxy-3-methoxyphenyl)-1-(pyridin-3-yl)hepta-1,4,6-trien-3-one] | 4.4 ± 0.1 | – | – | 43.6 ± 0.1 | 185 °C (dec.) | –
14 | COc1cc(/C=C/C(=O)/C=C(O)/C=C/c2ccccc2)ccc1O [Compound 5h, 5-Hydroxy-7-(4-hydroxy-3-methoxyphenyl)-1-phenylhepta-1,4,6-trien-3-one] | 7.1 ± 0.1 | – | – | – | 135 to 137 °C | –
15 | COC(=O)CCCOc1ccc(C=CC(=O)C=C(O)C=Cc2ccc(O)c(OC)c2)cc1OC [Compound 5i, Methyl 4-(4-(5-hydroxy-7–(4-hydroxy-3-methoxyphenyl)-3-oxohepta-1,4,6-trien-1-yl)-2-methoxyphenoxy)-butanoate] | 1 ± 0.5 | – | – | 9.5 ± 1.5 | 100 to 101 °C | –
16 | COc1cc(/C=C/C(=O)/C=C(O)/C=C/c2ccc([N+](=O)[O-])cc2)ccc1O [Compound 5j, 5-Hydroxy-7-(4-hydroxy-3-methoxyphenyl)-1-(4-nitrophenyl)hepta-1,4,6-trien-3-one] | 0.9 ± 0.3 | – | – | 6.9 ± 1.8 | 204 to 205 °C | –
17 | COc1cc(/C=C/C(=O)/C=C(O)/C=C/c2ccc(C(F)(F)F)cc2)ccc1O [Compound 5k, 5-Hydroxy-7-(4-hydroxy-3-methoxyphenyl)-1-(4-(trifluoromethyl)phenyl)hepta-1,4,6-trien-3-one] | 1 ± 0.1 | – | – | – | 158 to 160 °C | –
18 | COc1cc(/C=C/C(=O)/C=C(O)/C=C/c2ccc(F)cc2)ccc1O [Compound 5l, 1-(4-Fluorophenyl)-5-hydroxy-7-(4-hydroxy-3-methoxyphenyl)hepta-1,4,6-trien-3-one] | 1.8 ± 0.2 | – | – | – | 146 to 147 °C | –
19 | COc1cc(/C=C/C(=O)/C=C(O)/C=C/c2ccc(Br)cc2)ccc1O [Compound 5m, 1-(4-Bromophenyl)-5-hydroxy-7-(4-hydroxy-3-methoxyphenyl)hepta-1,4,6-trien-3-one] | 1 ± 0.2 | – | – | – | 148 to 149 °C | –
20 | COc1cc(/C=C/C(=O)/C=C(O)/C=C/c2ccc(NC(C)=O)cc2)ccc1O [Compound 5n, N-(4–(5-Hydroxy-7–(4-hydroxy-3-methoxyphenyl)-3-oxohepta-1,4,6-trien-1-yl)phenyl)acetamide] | 1.8 ± 0.4 | – | – | 6.8 ± 0.8 | 183 to 185 °C | –
21 | COc1ccc(/C=C/C(O)=C/C(=O)/C=C/c2ccc(O)c(OC)c2)cc1 [Compound 5o, 5-Hydroxy-7-(4-hydroxy-3-methoxyphenyl)-1-(4-methoxyphenyl)hepta-1,4,6-trien-3-one] | 1.2 ± 0.1 | – | – | 4.2 ± 0.8 | 143 to 145 °C | –
22 | COc1cc(/C=C/C(=O)/C=C(O)/C=C/c2ccc(O)cc2)ccc1O [Compound 5p, 5-Hydroxy-7-(4-hydroxy-3-methoxyphenyl)-1-(4-hydroxyphenyl)hepta-1,4,6-trien-3-one] | 0.6 ± 0.2 | – | – | 4.3 ± 0.7 | – | –
23 | COc1cc(/C=C/C(=O)/C=C(O)/C=C/c2ccc(N)cc2)ccc1O [Compound 5q, 1-(4-Aminophenyl)-5-hydroxy-7-(4-hydroxy-3-methoxyphenyl)hepta-1,4,6-trien-3-one] | 1.6 ± 0.1 | noncompetitive inhibition | 0.8 | 2.9 ± 0.9 | 99 to 100 °C | –
24 | COc1cc(/C=C/C(=O)/C=C(O)/C=C/c2ccc(N(C)C)cc2)ccc1O [Compound 5r, 1-(4-(Dimethylamino)phenyl)-5-hydroxy-7-(4-hydroxy-3-methoxyphenyl)hepta-1,4,6-trien-3-one] | 1.5 ± 0.2 | – | – | 1.9 ± 0.2 | – | –
25 | COc1cc(/C=C/C(=O)/C=C(O)/C=C/c2ccc(N3CCCCC3)cc2)ccc1O [Compound 5s, 5-Hydroxy-7-(4-hydroxy-3-methoxyphenyl)-1-(4-(piperidin-1-yl)phenyl)hepta-1,4,6-trien-3-one] | 1.5 ± 0.1 | – | – | – | 204 to 205 °C | –
26 | COc1cc(CCC(=O)/C=C(\O)CCc2ccc(O)c(OC)c2)ccc1O [Compound 6, 1,7-Bis(4-hydroxy-3-methoxyphenyl)heptane-3,5-dione] | 82.1 ± 7.6 | – | – | – | – | –
27 | COc1cc(/C=C/C(=O)/C=C(O)/C=C/c2ccc(OC(C)=O)c(OC)c2)ccc1OC(C)=O [Compound 7, 3-Hydroxy-5-oxohepta-1,3,6-triene-1,7-diyl)bis(2-methoxy-4,1-phenylene) diacetate] | 2.6 ± 0.6 | – | – | 37.5 ± 3.5 | – | –
28 | COc1cc(C=Cc2cc(C=Cc3ccc(O)c(OC)c3)[nH]n2)ccc1O [Compound 8] | 6.2 ± 1.5 | – | – | 41.6 ± 18.7 | – | –
